Drawing on ChEMBL document CHEMBL1157081, “HPLC-based activity profiling for GABA(A) receptor modulators: a new dihydroisocoumarin from Haloxylon scoparium” (J Nat Prod, 2010), this text covers EC50 and Activity for three compounds.

Activity calls are given as the source filed them. The calls are words filed in the database; no cut-off is given here.

The nature of test [1]: Allosteric modulation at GABA A receptor alpha-1-beta-2-gamma-2S expressed in Xenopus oocytes assessed as enhancement of GABA-induced chloride current. The settings on record: Oocyte. The class given is cell-based.
In test [2] the test system is Oocyte. Put plainly: Allosteric modulation at GABA A receptor alpha-1-beta-2-gamma-2S expressed in Xenopus oocytes assessed as enhancement of GABA-induced chloride current at >=3 uM. It counts as cell-based.
Test [3] deals with Oocyte. Put plainly: Agonist activity at GABA A receptor alpha-1-beta-2-gamma-2S expressed in Xenopus oocytes assessed as enhancement of chloride current at 500 uM. It counts as functional, cell-based.
The test system of test [4] is Oocyte. Put plainly: Allosteric modulation at GABA A receptor alpha-1-beta-2-gamma-2S expressed in Xenopus oocytes assessed as enhancement of GABA-induced chloride current at 500 uM. The class given is cell-based.

In the case of `CC(C)=CCC[C@](C)(O[C@@H]1O[C@H](CO[C@@H]2O[C@@H](CO)[C@H](O)[C@H]2O)[C@@H](O)[C@H](O)[C@H]1O)[C@H]1CC[C@]2(C)[C@@H]1[C@H](O)C[C@@H]1[C@@]3(C)CC[C@H](O[C@@H]4O[C@H](CO)[C@@H](O)[C@H](O)[C@H]4O[C@@H]4O[C@H](CO)[C@@H](O)[C@H](O)[C@H]4O)C(C)(C)[C@@H]3CC[C@]12C` [GINSENOSIDE RC], the EC50 in test [1] is 53.2 µM.

Turning to `CC1(C)C2CCC1(C)C(O)C2` (racemic) [BORNEOL], the EC50 in test [1] is 237 µM.

Consider `COc1c2c(cc3c1C(=O)O[C@H](c1ccccc1)C3)OCO2`, for which the EC50 in test [1] was determined as 140 µM. The outcome in the test with Oocyte [2] was Active. Also, the result in the test on Oocyte [3] was inactive. In addition, the Activity in the test with Oocyte [4] was 145%.

Broadly, the EC50 is the concentration giving half of the maximal effect.
